Measured values taken from US20250270213A1, “PI3Ka INHIBITORS” (Synnovation Therapeutics, Inc., priority 2022, published 2025).

Tested on: T47D (PIK3CA H1047R) cells
Experiment: pS473 AKT assay with 2.5% FBS, T47D cells
Type: cell-based
Conditions: Homo sapiens, pSer473 AKT, DMEM with 2.5% FBS, 2 h treatment, read-out: T47D_IC50
How it was run: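 T47D (PIK3CA H1047R) cells were switched to DMEM with 2.5% FBS and exposed to compounds for 2 h. After paraformaldehyde fixation, pSer473 AKT was detected by in-cell ELISA (rabbit primary, HRP anti-rabbit secondary, chemiluminescence); IC50 values were fitted from the concentration series.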

IC50, < 1 µM:
CCn1c(=O)c2cc(C)cc(C(C)Nc3ccc(Cl)nc3N3CCOCC3)c2c2cnn(-c3ccccn3)c21 (centres unmarked) [Example 270, 9-(1-((6-chloro-2-morpholinopyridin-3-yl)amino)ethyl)-4-ethyl-7-methyl-3-(pyridin-2-yl)-3,4-dihydro-5H-pyrazolo[3,4-c]isoquinolin-5-one]
Cc1cc(C(C)Nc2ccc(Cl)nc2-c2cnn(C)c2)c2c(c1)c(=O)n(C)c1nn(C3CCN(C(=O)N(C)C)CC3)cc21 (centres unmarked) [Example 211, 4-(9-(1-((6-chloro-2-(1-methyl-1H-pyrazol-4-yl)pyridin-3-yl)amino)ethyl)-4,7-dimethyl-5-oxo-4,5-dihydro-2H-pyrazolo[3,4-c]isoquinolin-2-yl)-N,N-dimethylpiperidine-1-carboxamide]
CCn1ncc2c3c(C(C)Nc4ccc(C)nc4C(=O)O)cc(C)cc3c(=O)n(C)c21 (centres unmarked) [Compound I-20, 3-((1-(3-Ethyl-4,7-dimethyl-5-oxo-4,5-dihydro-3H-pyrazolo[3,4-c]isoquinolin-9-yl)ethyl)amino)-6-methylpicolinic acid]
CCn1c(=O)c2cc(C)cc(C(C)Nc3ccc(Cl)nc3-c3ncn(C)n3)c2c2cnn(C3CCN(C(=O)OC)C3)c21 (centres unmarked) [Compound 150, methyl 3-(9-(1-((6-chloro-2-(1-methyl-1H-1,2,4-triazol-3-yl)pyridin-3-yl)amino)ethyl)-4-ethyl-7-methyl-5-oxo-4,5-dihydro-3H-pyrazolo[3,4-c]isoquinolin-3-yl)pyrrolidine-1-carboxylate]
Cc1cc(C(C)Nc2ccc(Cl)nc2-c2ncn(C)n2)c2c(c1)c(=O)n(C)c1c2cnn1C1CCN(C2COC2)CC1 (centres unmarked) [Compound 179, 9-(1-((6-chloro-2-(1-methyl-1H-1,2,4-triazol-3-yl)pyridin-3-yl)amino)ethyl)-4,7-dimethyl-3-(1-(oxetan-3-yl)piperidin-4-yl)-3,4-dihydro-5H-pyrazolo[3,4-c]isoquinolin-5-one]
CCCn1ncc2c3c(C(C)Nc4ccc(Cl)nc4-c4noc(=O)[nH]4)cc(C)cc3c(=O)n(C)c21 (centres unmarked) [Compound 65, 3-(6-Chloro-3-((1-(4,7-dimethyl-5-oxo-3-propyl-4,5-dihydro-3H-pyrazolo[3,4-c]isoquinolin-9-yl)ethyl)amino)pyridin-2-yl)-1,2,4-oxadiazol-5(4H)-one]
[2H]C([2H])([2H])n1c(=O)c2cc(C)cc(C(C)Nc3ccc(Cl)nc3-c3nnn(C)n3)c2c2cnn(C3CCN(CCC#N)C3)c21 (centres unmarked) [Compound 153, 3-(3-(9-(1-((6-chloro-2-(2-methyl-2H-tetrazol-5-yl)pyridin-3-yl)amino)ethyl)-7-methyl-4-(methyl-d3)-5-oxo-4,5-dihydro-3H-pyrazolo[3,4-c]isoquinolin-3-yl)pyrrolidin-1-yl)propanenitrile]
Cc1cc(C(C)Nc2ccc(Cl)nc2-c2ncn(CCO)n2)c2c(c1)c(=O)n1c3c2cnn3CCC1 (centres unmarked) [Compound 297, 10-(1-((6-chloro-2-(1-(2-hydroxyethyl)-1H-1,2,4-triazol-3-yl)pyridin-3-yl)amino)ethyl)-8-methyl-4,5-dihydro-3H,6H-2,2a,5a-triazaaceanthrylen-6-one]
Cc1cc(C(C)Nc2ccccc2C(=O)O)c2c(c1)c(=O)n(C)c1c(C)ncn21 (centres unmarked) [Compound I-7, 2-((1-(3,4,7-Trimethyl-5-oxo-4,5-dihydroimidazo[1,5-a]quinazolin-9-yl)ethyl)amino)benzoic acid]
CCn1c(=O)c2cc(C)cc(C(C)Nc3ccc(Cl)nc3N3CCOCC3)c2c2cnn(CCO)c21 (centres unmarked) [Example 262, 9-[1-[(6-Chloro-2-morpholino-3-pyridyl)amino]ethyl]-4-ethyl-3-(2-hydroxyethyl)-7-methyl-pyrazolo[3,4-c]isoquinolin-5-one]
CCn1ncc2c3c(C(C)Nc4ccc(Cl)nc4C4CCN(C(C)=O)CC4)cc(C)cc3c(=O)n(C)c21 (centres unmarked) [Example 241, 9-[1-[[2-(1-Acetyl-4-piperidyl)-6-chloro-3-pyridyl]amino]ethyl]-3-ethyl-4,7-dimethyl-pyrazolo[3,4-c]isoquinolin-5-one]
Cc1cc(C(C)Nc2ccc(Cl)nc2-c2ccncc2F)c2c(c1)c(=O)n(C)c1c2cnn1CCN1CCOCC1 (centres unmarked) [Example 264, 9-(1-((6-chloro-3′-fluoro-[2,4′-bipyridin]-3-yl)amino)ethyl)-4,7-dimethyl-3-(2-morpholinoethyl)-3,4-dihydro-5H-pyrazolo[3,4-c]isoquinolin-5-one]
Cc1cc(C(C)Nc2ccc(Cl)nc2-c2ccnc(N(C)C)c2)c2c(c1)c(=O)n1c3c2cnn3CCC1 (centres unmarked) [Compound 313, 10-(1-((6-chloro-2′-(dimethylamino)-[2,4′-bipyridin]-3-yl)amino)ethyl)-8-methyl-4,5-dihydro-3H,6H-2,2a,5a-triazaaceanthrylen-6-one]
CCn1c(=O)c2cc(C)cc(C(C)Nc3ccc(Cl)nc3C(=O)O)c2c2cnn(C)c21 (centres unmarked) [Compound I-22, 6-Chloro-3-((1-(4-ethyl-3,7-dimethyl-5-oxo-4,5-dihydro-3H-pyrazolo[3,4-c]isoquinolin-9-yl)ethyl)amino)picolinic acid]
CCc1ncn2c3c(C(C)Nc4ccccc4C(=O)O)cc(C)cc3c(=O)n(C)c12 (centres unmarked) [Compound I-5, 2-((1-(3-Ethyl-4,7-dimethyl-5-oxo-4,5-dihydroimidazo[1,5-a]quinazolin-9-yl)ethyl)amino)benzoic acid]
Cc1cc(C(C)Nc2ccc(Cl)nc2-c2ncn(C)n2)c2c(c1)c(=O)n(C)c1nn(C3CCN(C)CC3)cc21 (centres unmarked) [Example 208, 9-(1-((6-chloro-2-(1-methyl-1H-1,2,4-triazol-3-yl)pyridin-3-yl)amino)ethyl)-4,7-dimethyl-2-(1-methylpiperidin-4-yl)-2,4-dihydro-5H-pyrazolo[3,4-c]isoquinolin-5-one]
Cc1cc(C(C)Nc2ccc(Cl)nc2-c2cnn(C)c2)c2c(c1)c(=O)n(C)c1c(C(=O)N3CCC3)ncn21 (centres unmarked) [Compound 121, 3-(azetidine-1-carbonyl)-9-(1-((6-chloro-2-(1-methyl-1H-pyrazol-4-yl)pyridin-3-yl)amino)ethyl)-4,7-dimethylimidazo[1,5-a]quinazolin-5(4H)-one]
CCn1c(=O)c2cc(C)cc(C(C)Nc3ccc(Cl)nc3-c3ncn(C)n3)c2c2cnn(C3CCN(C(C)C)C3)c21 (centres unmarked) [Compound 147, 9-(1-((6-chloro-2-(1-methyl-1H-1,2,4-triazol-3-yl)pyridin-3-yl)amino)ethyl)-4-ethyl-3-(1-isopropylpyrrolidin-3-yl)-7-methyl-3,4-dihydro-5H-pyrazolo[3,4-c]isoquinolin-5-one]
CCn1ncc2c3c(C(C)Nc4ccc(Cl)nc4-c4ncn(C)n4)cc(C)cc3c(=O)n(C3CCOC3)c21 (centres unmarked) [Example 223, 9-[1-[[6-Chloro-2-(1-methyl-1,2,4-triazol-3-yl)-3-pyridyl]amino]ethyl]-3-ethyl-7-methyl-4-tetrahydrofuran-3-yl-pyrazolo[3,4-c]isoquinolin-5-one]
CCn1c(=O)c2cc(C)cc(C(C)Nc3ccc(Cl)nc3-c3cnn(C4CCN(C)CC4)c3)c2c2cnn([C@H]3CCOC3)c21 (stereo partly drawn) [Example 217, 9-(1-((6-chloro-2-(1-(1-methylpiperidin-4-yl)-1H-pyrazol-4-yl)pyridin-3-yl)amino)ethyl)-4-ethyl-7-methyl-3-((S)-tetrahydrofuran-3-yl)-3,4-dihydro-5H-pyrazolo[3,4-c]isoquinolin-5-one]
Cc1cc(C(C)Nc2ccc(Cl)nc2-c2cnn(C)c2)c2c(c1)c(=O)n(C)c1c(-c3cncnc3)ncn21 (centres unmarked) [Compound 117, 9-(1-((6-chloro-2-(1-methyl-1H-pyrazol-4-yl)pyridin-3-yl)amino)ethyl)-4,7-dimethyl-3-(pyrimidin-5-yl)imidazo[1,5-a]quinazolin-5(4H)-one]
CCn1ncc2c3c(C(C)Nc4ccc(Cl)nc4-c4ccncc4F)cc(C)cc3c(=O)n(C)c21 (centres unmarked) [Compound 45, 9-(1-((6-chloro-3′-fluoro-[2,4′-bipyridin]-3-yl)amino)ethyl)-3-ethyl-4,7-dimethyl-3,4-dihydro-5H-pyrazolo[3,4-c]isoquinolin-5-one]
CCn1c(=O)c2cc(C)cc(C(C)Nc3ccccc3C(=O)O)c2c2cnn(C)c21 (centres unmarked) [Compound I-21, 2-((1-(4-Ethyl-3,7-dimethyl-5-oxo-4,5-dihydro-3H-pyrazolo[3,4-c]isoquinolin-9-yl)ethyl)amino)benzoic acid]
Cc1cc(C(C)Nc2ccc(Cl)nc2-c2ncn(C)n2)c2c(c1)c(=O)n(C)c1c(C(=O)N(C)C)ncn21 (centres unmarked) [Compound 119, 9-(1-((6-Chloro-2-(1-methyl-1H-1,2,4-triazol-3-yl)pyridin-3-yl)amino)ethyl)-N,N,4,7-tetramethyl-5-oxo-4,5-dihydroimidazo[1,5-a]quinazoline-3-carboxamide]
Cc1cc(C(C)Nc2ccc(Cl)nc2-c2noc(=O)[nH]2)c2c(c1)c(=O)n(C)c1c2cnn1Cc1ccccn1 (centres unmarked) [Example 276, 3-(6-Chloro-3-((1-(4,7-dimethyl-5-oxo-3-(pyridin-2-ylmethyl)-4,5-dihydro-3H-pyrazolo[3,4-c]isoquinolin-9-yl)ethyl)amino)pyridin-2-yl)-1,2,4-oxadiazol-5(4H)-one]
[2H]C([2H])([2H])n1c(=O)c2cc(C)cc(C(C)Nc3ccc(Cl)nc3-c3cnn(C)c3)c2c2cnn(C3CCN(C(=O)CN(C)C)C3)c21 (centres unmarked) [Compound 155, 9-(1-((6-chloro-2-(1-methyl-1H-pyrazol-4-yl)pyridin-3-yl)amino)ethyl)-3-(1-(dimethylglycyl)pyrrolidin-3-yl)-7-methyl-4-(methyl-d3)-3,4-dihydro-5H-pyrazolo[3,4-c]isoquinolin-5-one]
